Values quoted from earlier work in US8846671B2, “Heterocyclic alkynyl benzene compounds and medical compositions and uses thereof” (Guangzhou Institute of Biomedicine and Health, Chinese …, priority 2010, dated 2014).
Entries after “also recorded” stand apart in the source; their conditions may differ. Structures can show the parent of a compound that is named as a salt.

Legend:
BCR-ABL T315I mutant = conditions: cited from earlier work
[1] = system: cells carrying c-KIT D816V; conditions: cited from earlier work

SMILES	effect on BCR-ABL T315I mutant (BCR-ABL T315I mutant)	effect on cells with c-KIT D816V point mutation [1]
Cc1cn(-c2cc(NC(=O)c3ccc(C)c(Nc4nccc(-c5cccnc5)n4)c3)cc(C(F)(F)F)c2)cn1 [AMN107, Nilotinib]	neither AMN107 nor BMS-354825 have effect	no effect
Cc1ccc(NC(=O)c2ccc(CN3CCN(C)CC3)cc2)cc1Nc1nccc(-c2cccnc2)n1 [STI571, Imatinib mesylate]		cannot inhibit proliferation; also recorded: no effect
